From patent publication US9426996B2, “Use of benzoxaboroles as volatile antimicrobial agents on meats, plants, or plant parts” (AgroFresh Inc., priority 2013, dated 2016)

Assays:
Penicillium expansum = assay: in vivo sublimation bioassay on fruit, 1 mg/L (Example 31); conditions: 1 mg/L sublimed, three day treatment plus three days at 21° C.
Description: (§1) To assess the in vivo activity of volatile antimicrobial Compounds A and B (FIG. 1) in fruit, a volatile bioassay is developed using apple, pear, orange, strawberry, grape and blueberry.
(§2) Two apples, 2 oranges, 2 pears, 8 strawberries, 16 grapes or 30 blueberries (per replicate, in duplicate) are placed in a clamshell with the stem end facing up for all fruits except for strawberry (stem end facing downwards). A fresh wound is inoculated with 20 μL 1×10^6 per mL Penicillium expansum spore suspension (apple and pear), 20 μL 1×10^6 per mL Penicillium digitatum spore suspension (orange), and 20 μL (strawberry and grape) or 10 μL (blueberry) of 1×10^6 per mL Botrytis cinerea spore suspension. The clamshells are placed inside a 117 L Rubbermaid storage box (Cat #2244) with lids closed. […] After treatment, fruits are held for an additional three days at 21° C., then evaluated for disease incidence (mm diameter of browning or water-soaked lesions) and pathogen sporulation (mm diameter) for apple, pear and orange, as well as Botrytis cinerea disease incidence (%) and severity (0 to 4) for strawberry, grape and blueberry, with results summarized in Table 30.

Botrytis cinerea [1] = assay: as above; conditions: for Incidence (%) / Severity (0-4): 1 mg/L sublimed, three day treatment plus three days at 21° C.
Description: as §1, §2

Botrytis cinerea [2] = assay: in vivo dose by time volatile bioassay using strawberry; conditions: for Incidence (%) / Severity (0 to 3): strawberries
Description: In order to assess the in vivo dose by time activity of volatile antimicrobial compounds, a volatile bioassay is developed using strawberry. Two fruit are placed inside a 240 mL jar, with the calyx facing downwards. […] Whatman filter paper (Cat. No. 1822-024) is placed inside duplicate jar lids. Compound A (benzoxaborole; FIG. 1) is diluted in acetone, and the appropriate amount of compound is added to the disks at two rates 0.008 or 0.125 mg. The acetone is permitted to evaporate for 5 minutes. The jars are capped with the lids containing the fungicide, and incubated with the volatile fungicide for 1, 3, 6, 24 or 72 hours. After incubation, lids containing the disk with Compound A are replaced with new lids without Compound A. All samples are maintained at 21° C. for 3 days, and then the lids are removed and maintained for an additional 48 hours, all at 90% relative humidity (R.H.). The fruit are evaluated for incidence and severity of disease and appearance of phytotoxicity.

Botrytis cinerea [3] = assay: in vivo volatile bioassay using strawberry, grape and blueberry
Description: In order to assess the in vivo activity of volatile antimicrobial Compound A in fruit, a volatile bioassay is developed using strawberry, grape and blueberry. Eight strawberries, 16 grapes or 30 blueberries (per replicate) are placed in a commercially relevant sized PET clamshell, with the stem end facing up for blueberries and grapes, and downwards for strawberries. A fresh wound is inoculated with 20 μL (strawberry and grape) or 10 μL (blueberry) of 1×10^6 per mL Botrytis cinerea spore suspension. The clamshells are placed inside a 10.8-cup SnapWare airtight container (Model #109842). A 42.5 mm Whatman #1 filter disk (Cat. No. 1001-042) is placed on a watch glass. Compound A is dissolved in acetone and added to the disks in a dose dependent manner to produce a final headspace concentration of 0.4, 2, or 10 mg/L. The acetone is permitted to evaporate for five minutes. The containers are then closed with lids and placed for three days at 21° C. After storage, fruits are evaluated for incidence and severity (0 to 4) of disease for an additional three days at 21° C., with results summarized in Table 17.

[4] = Blueberry, 0.4 mg/L, evaluation day 0
[5] = Blueberry, 0.4 mg/L, evaluation day 1
[6] = Blueberry, 0.4 mg/L, evaluation day 2
[7] = Blueberry, 0.4 mg/L, evaluation day 3
[8] = Blueberry, 2 mg/L, evaluation day 0
[9] = Blueberry, 2 mg/L, evaluation day 1
[10] = Blueberry, 2 mg/L, evaluation day 2
[11] = Blueberry, 2 mg/L, evaluation day 3
[12] = Blueberry, 10 mg/L, evaluation day 0
[13] = Blueberry, 10 mg/L, evaluation day 1
[14] = Blueberry, 10 mg/L, evaluation day 2
[15] = Blueberry, 10 mg/L, evaluation day 3
[16] = Grape, 0.4 mg/L, evaluation day 0
[17] = Grape, 0.4 mg/L, evaluation day 1
[18] = Grape, 0.4 mg/L, evaluation day 2
[19] = Grape, 0.4 mg/L, evaluation day 3
[20] = Grape, 2 mg/L, evaluation day 2
[21] = Grape, 2 mg/L, evaluation day 3
[22] = Grape, 10 mg/L, evaluation day 2
[23] = Grape, 10 mg/L, evaluation day 3
[24] = Strawberry, 0.4 mg/L, evaluation day 0
[25] = Strawberry, 0.4 mg/L, evaluation day 1
[26] = Strawberry, 0.4 mg/L, evaluation day 2
[27] = Strawberry, 0.4 mg/L, evaluation day 3
[28] = Strawberry, 2 mg/L, evaluation day 0
[29] = Strawberry, 2 mg/L, evaluation day 1
[30] = Strawberry, 2 mg/L, evaluation day 2
[31] = Strawberry, 2 mg/L, evaluation day 3
[32] = Strawberry, 10 mg/L, evaluation day 0
[33] = Strawberry, 10 mg/L, evaluation day 1
[34] = Strawberry, 10 mg/L, evaluation day 2
[35] = Strawberry, 10 mg/L, evaluation day 3

Structure (SMILES): OB1OCc2cc(F)ccc21 [Compound A]
- Browning (mm) (Penicillium expansum; Apple): 0.8 mm
- Sporulation (mm) (Penicillium expansum; Apple): 0.0 mm
- Browning (mm) (Penicillium expansum; Pear): 4.7 mm
- Sporulation (mm) (Penicillium expansum; Pear): 0.0 mm
- in vivo antimicrobial control of B. cinerea (Botrytis cinerea [1]; 1 mg/L, volatile fungicide on different hosts): 100%
- Incidence (%) (Botrytis cinerea [1]; Blueberry): 0.0%
- Severity (0-4) (Botrytis cinerea [1]; Blueberry): 0.0
- Incidence (%) (Botrytis cinerea [1]; Grape): 0.0%
- Severity (0-4) (Botrytis cinerea [1]; Grape): 0.0
- Incidence (%) (Botrytis cinerea [1]; Strawberry): 0.0%
- Severity (0-4) (Botrytis cinerea [1]; Strawberry): 0.0
- Incidence (%) (Botrytis cinerea [2]; 0.008 mg/disk, Time 3 h): 0%
- Severity (0 to 3) (Botrytis cinerea [2]; 0.008 mg/disk, Time 3 h): 0.0
- Incidence (%) (Botrytis cinerea [2]; 0.008 mg/disk, Time 6 h): 33%
- Severity (0 to 3) (Botrytis cinerea [2]; 0.008 mg/disk, Time 6 h): 1.0
- Incidence (%) (Botrytis cinerea [2]; 0.008 mg/disk, Time 24 h): 67%
- Severity (0 to 3) (Botrytis cinerea [2]; 0.008 mg/disk, Time 24 h): 2.3
- Incidence (%) (Botrytis cinerea [2]; 0.008 mg/disk, Time 72 h): 33%
- Severity (0 to 3) (Botrytis cinerea [2]; 0.008 mg/disk, Time 72 h): 1.0
- Incidence (%) (Botrytis cinerea [2]; 0.125 mg/disk, Time 1 h): 67%
- Severity (0 to 3) (Botrytis cinerea [2]; 0.125 mg/disk, Time 1 h): 2.3
- Incidence (%) (Botrytis cinerea [2]; 0.125 mg/disk, Time 3 h): 33%
- Severity (0 to 3) (Botrytis cinerea [2]; 0.125 mg/disk, Time 3 h): 1.3
- Incidence (%) (Botrytis cinerea [2]; 0.125 mg/disk, Time 6 h): 0%
- Severity (0 to 3) (Botrytis cinerea [2]; 0.125 mg/disk, Time 6 h): 0.0
- Incidence (%) (Botrytis cinerea [2]; 0.125 mg/disk, Time 24 h): 0%
- Severity (0 to 3) (Botrytis cinerea [2]; 0.125 mg/disk, Time 24 h): 0.0
- Incidence (%) (Botrytis cinerea [2]; 0.125 mg/disk, Time 72 h): 0%
- Severity (0 to 3) (Botrytis cinerea [2]; 0.125 mg/disk, Time 72 h): 0.0
- control of Botrytis cinerea (Botrytis cinerea [2]; strawberry, 0.125 mg/disk, after 6 hour exposure): 100%
- appearance of phytotoxicity (Botrytis cinerea [2]; strawberry, 0.008 or 0.125 mg): no evidence of phytotoxicity
- Incidence (%) (Botrytis cinerea [3]; [4]): 21%
- Severity (0-4) (Botrytis cinerea [3]; [4]): 0.1
- Incidence (%) (Botrytis cinerea [3]; [5]): 21%
- Severity (0-4) (Botrytis cinerea [3]; [5]): 0.2
- Incidence (%) (Botrytis cinerea [3]; [6]): 40.3%
- Severity (0-4) (Botrytis cinerea [3]; [6]): 0.5
- Incidence (%) (Botrytis cinerea [3]; [7]): 62.9%
- Severity (0-4) (Botrytis cinerea [3]; [7]): 1
- Incidence (%) (Botrytis cinerea [3]; [8]): 9.7%
- Severity (0-4) (Botrytis cinerea [3]; [8]): 0
- Incidence (%) (Botrytis cinerea [3]; [9]): 9.7%
- Severity (0-4) (Botrytis cinerea [3]; [9]): 0
- Incidence (%) (Botrytis cinerea [3]; [10]): 9.7%
- Severity (0-4) (Botrytis cinerea [3]; [10]): 0.1
- Incidence (%) (Botrytis cinerea [3]; [11]): 40.3%
- Severity (0-4) (Botrytis cinerea [3]; [11]): 0.6
- Incidence (%) (Botrytis cinerea [3]; [12]): 12.9%
- Severity (0-4) (Botrytis cinerea [3]; [12]): 0.1
- Incidence (%) (Botrytis cinerea [3]; [13]): 12.9%
- Severity (0-4) (Botrytis cinerea [3]; [13]): 0.1
- Incidence (%) (Botrytis cinerea [3]; [14]): 12.9%
- Severity (0-4) (Botrytis cinerea [3]; [14]): 0.2
- Incidence (%) (Botrytis cinerea [3]; [15]): 41.9%
- Severity (0-4) (Botrytis cinerea [3]; [15]): 0.6
- Incidence (%) (Botrytis cinerea [3]; [16]): 3.1%
- Severity (0-4) (Botrytis cinerea [3]; [16]): 0
- Incidence (%) (Botrytis cinerea [3]; [17]): 3.1%
- Severity (0-4) (Botrytis cinerea [3]; [17]): 0
- Incidence (%) (Botrytis cinerea [3]; [18]): 15.6%
- Severity (0-4) (Botrytis cinerea [3]; [18]): 0.2
- Incidence (%) (Botrytis cinerea [3]; [19]): 62.5%
- Severity (0-4) (Botrytis cinerea [3]; [19]): 0.5
- Severity (0-4) (Botrytis cinerea [3]; Grape, 2 mg/L, evaluation day 0): 0
- Severity (0-4) (Botrytis cinerea [3]; Grape, 2 mg/L, evaluation day 1): 0
- Incidence (%) (Botrytis cinerea [3]; [20]): 0%
- Severity (0-4) (Botrytis cinerea [3]; [20]): 0
- Incidence (%) (Botrytis cinerea [3]; [21]): 56.3%
- Severity (0-4) (Botrytis cinerea [3]; [21]): 0.3
- Severity (0-4) (Botrytis cinerea [3]; Grape, 10 mg/L, evaluation day 0): 0
- Severity (0-4) (Botrytis cinerea [3]; Grape, 10 mg/L, evaluation day 1): 0
- Incidence (%) (Botrytis cinerea [3]; [22]): 3.1%
- Severity (0-4) (Botrytis cinerea [3]; [22]): 0
- Incidence (%) (Botrytis cinerea [3]; [23]): 56.3%
- Severity (0-4) (Botrytis cinerea [3]; [23]): 0.4
- Incidence (%) (Botrytis cinerea [3]; [24]): 0%
- Severity (0-4) (Botrytis cinerea [3]; [24]): 0
- Incidence (%) (Botrytis cinerea [3]; [25]): 21.4%
- Severity (0-4) (Botrytis cinerea [3]; [25]): 0.1
- Incidence (%) (Botrytis cinerea [3]; [26]): 21.4%
- Severity (0-4) (Botrytis cinerea [3]; [26]): 0.1
- Incidence (%) (Botrytis cinerea [3]; [27]): 28.6%
- Severity (0-4) (Botrytis cinerea [3]; [27]): 0.5
- Incidence (%) (Botrytis cinerea [3]; [28]): 14.3%
- Severity (0-4) (Botrytis cinerea [3]; [28]): 0.1
- Incidence (%) (Botrytis cinerea [3]; [29]): 50%
- Severity (0-4) (Botrytis cinerea [3]; [29]): 0.3
- Incidence (%) (Botrytis cinerea [3]; [30]): 50%
- Severity (0-4) (Botrytis cinerea [3]; [30]): 0.3
- Incidence (%) (Botrytis cinerea [3]; [31]): 64.3%
- Severity (0-4) (Botrytis cinerea [3]; [31]): 0.5
- Incidence (%) (Botrytis cinerea [3]; [32]): 7.1%
- Severity (0-4) (Botrytis cinerea [3]; [32]): 0
- Incidence (%) (Botrytis cinerea [3]; [33]): 35.7%
- Severity (0-4) (Botrytis cinerea [3]; [33]): 0.2
- Incidence (%) (Botrytis cinerea [3]; [34]): 42.9%
- Severity (0-4) (Botrytis cinerea [3]; [34]): 0.5
- Incidence (%) (Botrytis cinerea [3]; [35]): 42.9%
- Severity (0-4) (Botrytis cinerea [3]; [35]): 0.8
